≈ marks a conversion by molar mass, not a printed value. Where two headings read alike, the source gives them in different places.
System: A. non-baumannii isolates (n = 87)
Assay: MIC, broth microdilution (EUCAST), A. non-baumannii isolates
Assay type: cell-based, Acinetobacter spp. (non-baumannii)
Settings: for MIC: read-out: MIC
In short: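 Clinical isolates from the Spanish National Acinetobacter spp. 2020 collection were tested by EUCAST v.15 broth microdilution, including enmetazobactam on its own. Duplicate runs used A. baumannii ATCC 19606 as reference.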

[1] = Acinetobacter, A. non-baumannii isolates (n=87), ETZ fixed 8 mg/L in combinations

`CC1(C)[C@H](C(=O)O)N2C(=O)C[C@H]2S1(=O)=O` [sulbactam] was tested, and the MIC (Acinetobacter pittii, MBC set, isolate NO-Ab89, A. pittii) was 0.5 µg/mL (≈ 2.14 µM), the MIC (Acinetobacter pittii, isolate NO-Ab59, Acinetobacter pittii, in combinations ETZ fixed at 8 mg/L) was 1 µg/mL and the MIC (Acinetobacter pittii, isolate NO-Ab66, Acinetobacter pittii, in combinations ETZ fixed at 8 mg/L) was 1 µg/mL. For the same compound, the MIC (Acinetobacter pittii, isolate NO-Ab73, Acinetobacter pittii, in combinations ETZ fixed at 8 mg/L) was 0.5 µg/mL, the MIC (Acinetobacter pittii, isolate NO-Ab75, Acinetobacter pittii, in combinations ETZ fixed at 8 mg/L) was 1 µg/mL and the MIC (Acinetobacter pittii, isolate NO-Ab78, Acinetobacter pittii, in combinations ETZ fixed at 8 mg/L) was 0.5 µg/mL. For the same compound, the MIC (Acinetobacter pittii, isolate NO-Ab82, Acinetobacter pittii, in combinations ETZ fixed at 8 mg/L) was 0.5 µg/mL, the MIC (Acinetobacter pittii, isolate NO-Ab89, Acinetobacter pittii, in combinations ETZ fixed at 8 mg/L) was 0.5 µg/mL and the MIC (Acinetobacter pittii, isolate NO-Ab90, Acinetobacter pittii, in combinations ETZ fixed at 8 mg/L) was 0.5 µg/mL. It also gave an MIC (Acinetobacter pittii, isolate NO-Ab97, Acinetobacter pittii, in combinations ETZ fixed at 8 mg/L) of 1 µg/mL, an MIC (Acinetobacter pittii, isolate NO-Ab105, Acinetobacter pittii, in combinations ETZ fixed at 8 mg/L) of 1 µg/mL and an MIC (Acinetobacter pittii, isolate NO-Ab106, Acinetobacter pittii, in combinations ETZ fixed at 8 mg/L) of 0.5 µg/mL. It also gave an MIC (Acinetobacter pittii, isolate NO-Ab107, Acinetobacter pittii, in combinations ETZ fixed at 8 mg/L) of 0.5 µg/mL, an MIC (Acinetobacter pittii, isolate NO-Ab111, Acinetobacter pittii, in combinations ETZ fixed at 8 mg/L) of 1 µg/mL and an MIC (Acinetobacter pittii, isolate NO-Ab113, Acinetobacter pittii, in combinations ETZ fixed at 8 mg/L) of 1 µg/mL. For the same compound, the MIC (Acinetobacter pittii, isolate NO-Ab118, Acinetobacter pittii, in combinations ETZ fixed at 8 mg/L) was 2 µg/mL, the MIC (Acinetobacter pittii, isolate NO-Ab135, Acinetobacter pittii, in combinations ETZ fixed at 8 mg/L) was 0.5 µg/mL and the MIC (Acinetobacter pittii, isolate NO-Ab145, Acinetobacter pittii, in combinations ETZ fixed at 8 mg/L) was 1 µg/mL. It also gave an MIC (Acinetobacter pittii, isolate NO-Ab151, Acinetobacter pittii, in combinations ETZ fixed at 8 mg/L) of 2 µg/mL, an MIC (Acinetobacter pittii, isolate NO-Ab154, Acinetobacter pittii, in combinations ETZ fixed at 8 mg/L) of 0.5 µg/mL and an MIC (Acinetobacter pittii, isolate NO-Ab157, Acinetobacter pittii, in combinations ETZ fixed at 8 mg/L) of 1 µg/mL. It also gave an MIC (Acinetobacter pittii, isolate NO-Ab162, Acinetobacter pittii, in combinations ETZ fixed at 8 mg/L) of 0.5 µg/mL, an MIC (Acinetobacter pittii, isolate NO-Ab164, Acinetobacter pittii, in combinations ETZ fixed at 8 mg/L) of 0.5 µg/mL and an MIC (Acinetobacter pittii, isolate NO-Ab178, Acinetobacter pittii, in combinations ETZ fixed at 8 mg/L) of 0.5 µg/mL. It also gave an MIC (Acinetobacter pittii, isolate NO-Ab197, Acinetobacter pittii, in combinations ETZ fixed at 8 mg/L) of 0.5 µg/mL, an MIC (Acinetobacter proteolyticus, isolate NO-Ab99, Acinetobacter proteolyticus, in combinations ETZ fixed at 8 mg/L) of 1 µg/mL and an MIC (Acinetobacter proteolyticus, isolate NO-Ab102, Acinetobacter proteolyticus, in combinations ETZ fixed at 8 mg/L) of 1 µg/mL. It also gave an MIC (Acinetobacter proteolyticus, isolate NO-Ab210, Acinetobacter proteolyticus, in combinations ETZ fixed at 8 mg/L) of 0.25 µg/mL, an MIC (Acinetobacter radioresistens, isolate NO-Ab175, Acinetobacter radioresistens, in combinations ETZ fixed at 8 mg/L) of 1 µg/mL and an MIC (Acinetobacter radioresistens, isolate NO-Ab215, Acinetobacter radioresistens, in combinations ETZ fixed at 8 mg/L) of 0.25 µg/mL. For the same compound, the MIC (Acinetobacter ursingii, isolate NO-Ab3, Acinetobacter ursingii, in combinations ETZ fixed at 8 mg/L) was 0.25 µg/mL, the MIC (Acinetobacter ursingii, isolate NO-Ab64, Acinetobacter ursingii, in combinations ETZ fixed at 8 mg/L) was 1 µg/mL and the MIC (Acinetobacter ursingii, isolate NO-Ab87, Acinetobacter ursingii, in combinations ETZ fixed at 8 mg/L) was 0.12 µg/mL. The MIC (Acinetobacter ursingii, isolate NO-Ab103, Acinetobacter ursingii, in combinations ETZ fixed at 8 mg/L) was 0.5 µg/mL, the MIC (Acinetobacter ursingii, isolate NO-Ab119, Acinetobacter ursingii, in combinations ETZ fixed at 8 mg/L) was 0.5 µg/mL and the MIC (Acinetobacter ursingii, isolate NO-Ab120, Acinetobacter ursingii, in combinations ETZ fixed at 8 mg/L) was 0.5 µg/mL. For the same compound, the MIC (Acinetobacter ursingii, isolate NO-Ab123, Acinetobacter ursingii, in combinations ETZ fixed at 8 mg/L) was 2 µg/mL, the MIC (Acinetobacter ursingii, isolate NO-Ab126, Acinetobacter ursingii, in combinations ETZ fixed at 8 mg/L) was 1 µg/mL and the MIC (Acinetobacter ursingii, isolate NO-Ab147, Acinetobacter ursingii, in combinations ETZ fixed at 8 mg/L) was 2 µg/mL. The MIC (Acinetobacter ursingii, isolate NO-Ab155, Acinetobacter ursingii, in combinations ETZ fixed at 8 mg/L) was 1 µg/mL, the MIC (Acinetobacter ursingii, isolate NO-Ab165, Acinetobacter ursingii, in combinations ETZ fixed at 8 mg/L) was 1 µg/mL and the MIC (Acinetobacter ursingii, isolate NO-Ab166, Acinetobacter ursingii, in combinations ETZ fixed at 8 mg/L) was 0.25 µg/mL. For the same compound, the MIC (Acinetobacter ursingii, isolate NO-Ab214, Acinetobacter ursingii, in combinations ETZ fixed at 8 mg/L) was no more than 0.06 µg/mL, the MIC (Acinetobacter ursingii, isolate NO-Ab221, Acinetobacter ursingii, in combinations ETZ fixed at 8 mg/L) was 0.5 µg/mL and the MIC (Acinetobacter ursingii, isolate NO-Ab222, Acinetobacter ursingii, in combinations ETZ fixed at 8 mg/L) was 0.5 µg/mL. It also gave an MIC (Acinetobacter, MBC set, isolate NO-Ab84, A. bereziniae) of 1 µg/mL (≈ 4.29 µM), an MIC (Acinetobacter, MBC set, isolate NO-Ab88, A. dijkshoorniae) of 0.5 µg/mL (≈ 2.14 µM) and an MIC (Acinetobacter, isolate NO-Ab146, Acinetobacter iwoffii, in combinations ETZ fixed at 8 mg/L) of 2 µg/mL. The MIC (Acinetobacter, isolate NO-Ab159, Acinetobacter iwoffii, in combinations ETZ fixed at 8 mg/L) was 0.5 µg/mL, the MIC50 [1] was 1 µg/mL and the MIC90 [1] was 2 µg/mL.

Source: publication PMC12888861, “Antibacterial activity of enmetazobactam against Acinetobacter spp.: a molecular dissection of mechanism of action and resistance determinants” (Antimicrobial Agents and Chemotherapy, 2025)
